Test results published in patent US8067424B2, “Selective inhibitors for cyclin-dependent kinases” (Emory University, priority 2007, dated 2011).
Where two headings read alike, the source gives them in different places.

Experiments:
Format in all cases: biochemical
PLK1 = PLK1 (Homo sapiens, UniProt P53350); assay: Kinase screen: PLK1 assay
Description: (§1) Generally, the same procedure was used for all assays. Since the total assay volume was 25.5 microliters, 0.5 microliters of inhibitors at 51× assay concentration were added to the plates before any other addition.
(§2) The basic procedure was to add 0.5 microliters inhibitor/control in DMSO to plate. Fifteen microliters of enzyme/substrate/buffer mix were added and incubated for 5 min. Ten microliters MgATP at the relevant concentration were added and incubated for 30 min. The assay was stopped by adding 5 microliters of 3% orthophosphoric acid. The assay was transferred to a p81 filter plate and read in a scintillation counter of 30 sec/well. Note that this assay procedure was not followed for MKK1, which instead involved a two-step assay, and PKC alpha, which required the addition of lipid vesicles.
(50-1000 cpm/pmole) and incubated for 30 min at room temperature. Assays were stopped by addition of 5 μl of 0.5 M (3%) orthophosphoric acid and then harvested onto P81 Unifilter plates with a wash buffer of 50 mM orthophosphoric acid.

PKD1 = biological target: T1, PKD1 (Homo sapiens, UniProt Q15139); assay: Kinase screen: PKD1 assay
T1 sequence (Q15139 1-912): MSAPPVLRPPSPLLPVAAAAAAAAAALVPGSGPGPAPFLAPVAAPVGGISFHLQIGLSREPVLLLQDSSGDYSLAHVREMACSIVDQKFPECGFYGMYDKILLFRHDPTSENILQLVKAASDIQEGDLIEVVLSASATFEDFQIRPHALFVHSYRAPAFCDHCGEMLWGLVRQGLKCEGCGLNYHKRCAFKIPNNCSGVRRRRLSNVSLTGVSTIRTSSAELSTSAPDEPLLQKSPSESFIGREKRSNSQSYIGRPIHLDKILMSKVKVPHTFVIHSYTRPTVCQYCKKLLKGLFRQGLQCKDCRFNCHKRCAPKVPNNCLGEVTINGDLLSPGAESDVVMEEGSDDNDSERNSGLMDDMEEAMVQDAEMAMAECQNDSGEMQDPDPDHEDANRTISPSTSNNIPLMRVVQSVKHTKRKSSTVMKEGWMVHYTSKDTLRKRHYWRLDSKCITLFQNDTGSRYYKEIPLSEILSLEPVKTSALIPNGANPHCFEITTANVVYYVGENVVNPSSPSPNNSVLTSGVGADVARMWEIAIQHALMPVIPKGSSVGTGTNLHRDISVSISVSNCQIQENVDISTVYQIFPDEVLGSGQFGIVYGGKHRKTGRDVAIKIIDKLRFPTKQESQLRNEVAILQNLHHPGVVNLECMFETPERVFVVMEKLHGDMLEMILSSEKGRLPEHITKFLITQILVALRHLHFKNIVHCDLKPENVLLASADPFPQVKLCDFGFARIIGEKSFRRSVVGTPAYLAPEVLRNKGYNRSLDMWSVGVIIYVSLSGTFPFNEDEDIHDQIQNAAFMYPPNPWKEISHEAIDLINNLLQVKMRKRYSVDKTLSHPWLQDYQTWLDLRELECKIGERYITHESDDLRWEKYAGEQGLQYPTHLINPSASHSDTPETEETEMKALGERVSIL
Description: as §1, §2
PKD1 assay: PKD1 (5-20 mU diluted in 50 mM Tris pH 7.5, 0.1 mM EGTA, 0.1% b-mercaptoethanol, 1 mg/ml BSA) was assayed substrate peptide ([…]) (SEQ ID NO: 3) in a final volume of 25.5 μl containing 50 mM Tris pH 7.5, 0.05% b-mercaptoethanol, 30 μM substrate peptide, 10 mM magnesium acetate and 0.05 mM [33P-g-ATP] (50-1000 cpm/pmole) and incubated for 30 min at room temperature. Assays were stopped by addition of 5 μl of 0.5 M (3%) orthophosphoric acid and then harvested onto P81 Unifilter plates with a wash buffer of 50 mM orthophosphoric acid.

MNK1 = MNK1 (Homo sapiens, UniProt Q9BUB5); assay: Kinase screen: MNK1 assay
Description: as §1, §2
MNK1 assay: 5-20 mU of MNK1 (diluted in 50 mM Tris (pH 7.5), 0.1 mM EGTA, 1 mg/ml BSA, 0.1%, b-Mercaptoethanol) was assayed against substrate peptide (eIF4E) in a final volume of 25.5 μl containing 50 mM Tris (pH 7.5), 0.1 mM EGTA, 0.1%, b-Mercaptoethanol, 0.5 mg/ml substrate peptide, 10 mM magnesium acetate and 0.05 mM [33P-g-ATP](500-1000 cpm/pmole) and incubated for 30 mins at room temperature. Assays were stopped by addition of 5 μl of 0.5M (3%) orthophosphoric acid. Assays were harvested onto P81 Unifilter plates using a wash buffer of 50 mM orthophosphoric acid.

PKC zeta = biological target: T2, PKC zeta (Homo sapiens, UniProt Q05513); assay: Kinase screen: PKC zeta assay
T2 sequence (Q05513 1-592): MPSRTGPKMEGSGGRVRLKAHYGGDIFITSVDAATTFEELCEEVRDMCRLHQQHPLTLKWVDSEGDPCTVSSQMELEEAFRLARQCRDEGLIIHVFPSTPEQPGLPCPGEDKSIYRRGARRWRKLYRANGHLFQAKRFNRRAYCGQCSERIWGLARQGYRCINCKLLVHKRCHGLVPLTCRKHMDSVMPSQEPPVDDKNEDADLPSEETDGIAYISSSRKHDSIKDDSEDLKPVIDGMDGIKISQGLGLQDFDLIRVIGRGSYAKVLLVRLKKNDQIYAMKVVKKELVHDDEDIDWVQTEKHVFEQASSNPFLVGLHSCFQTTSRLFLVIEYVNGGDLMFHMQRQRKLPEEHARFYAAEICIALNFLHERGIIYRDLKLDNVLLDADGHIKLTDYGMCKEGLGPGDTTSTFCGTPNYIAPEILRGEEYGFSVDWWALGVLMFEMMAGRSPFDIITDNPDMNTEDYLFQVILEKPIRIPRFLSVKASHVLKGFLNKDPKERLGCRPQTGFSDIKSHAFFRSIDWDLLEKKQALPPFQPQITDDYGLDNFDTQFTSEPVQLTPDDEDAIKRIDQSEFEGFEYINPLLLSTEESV
Description: as §1, §2
PKC zeta assay: PKC zeta (5-20 mU diluted in 50 mM Tris pH 7.5, 0.1 mM EGTA, 0.1% b-mercaptoethanol, 1 mg/ml BSA, 100 μM Vanadate) was assayed against a substrate peptide ([…]) (SEQ ID NO: 34) in a final volume of 25.5 μl containing 50 mM Tris pH 7.5, 0.05% b-mercaptoethanol, 10 μM Vanadate, 300 μM substrate peptide, 10 mM magnesium acetate and 0.005 mM [33P-g-ATP] (50-1000 cpm/pmole) and incubated for 30 min at room temperature. Assays were stopped by addition of 5 μl of 0.5 M (3%) orthophosphoric acid and then harvested onto P81 Unifilter plates with a wash buffer of 50 mM orthophosphoric acid.

[1] = 10 micromolar compound, read-out: mean activity remaining (as a percentage of the original activity), PLK 1
[2] = 10 micromolar compound, read-out: mean activity remaining (as a percentage of the original activity), PKD1
[3] = 10 micromolar compound, read-out: mean activity remaining (as a percentage of the original activity), MNK1
[4] = 10 micromolar compound, read-out: mean activity remaining (as a percentage of the original activity), PKC zeta

Sequence of MNK1 (Q9BUB5 whole entry, species assumed): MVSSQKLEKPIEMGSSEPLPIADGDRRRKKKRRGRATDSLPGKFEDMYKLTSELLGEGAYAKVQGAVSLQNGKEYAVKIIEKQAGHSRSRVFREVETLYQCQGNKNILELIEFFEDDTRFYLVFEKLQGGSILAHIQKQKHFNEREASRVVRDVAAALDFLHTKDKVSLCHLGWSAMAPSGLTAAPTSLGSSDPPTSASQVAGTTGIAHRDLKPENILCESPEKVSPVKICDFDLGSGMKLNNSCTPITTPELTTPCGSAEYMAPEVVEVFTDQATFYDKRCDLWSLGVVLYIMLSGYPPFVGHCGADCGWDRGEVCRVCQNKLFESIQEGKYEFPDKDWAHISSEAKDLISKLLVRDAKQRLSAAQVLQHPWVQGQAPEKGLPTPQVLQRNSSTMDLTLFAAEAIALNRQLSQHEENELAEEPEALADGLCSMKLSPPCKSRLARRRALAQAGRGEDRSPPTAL
Sequence of PLK1 (P53350 whole entry, species assumed): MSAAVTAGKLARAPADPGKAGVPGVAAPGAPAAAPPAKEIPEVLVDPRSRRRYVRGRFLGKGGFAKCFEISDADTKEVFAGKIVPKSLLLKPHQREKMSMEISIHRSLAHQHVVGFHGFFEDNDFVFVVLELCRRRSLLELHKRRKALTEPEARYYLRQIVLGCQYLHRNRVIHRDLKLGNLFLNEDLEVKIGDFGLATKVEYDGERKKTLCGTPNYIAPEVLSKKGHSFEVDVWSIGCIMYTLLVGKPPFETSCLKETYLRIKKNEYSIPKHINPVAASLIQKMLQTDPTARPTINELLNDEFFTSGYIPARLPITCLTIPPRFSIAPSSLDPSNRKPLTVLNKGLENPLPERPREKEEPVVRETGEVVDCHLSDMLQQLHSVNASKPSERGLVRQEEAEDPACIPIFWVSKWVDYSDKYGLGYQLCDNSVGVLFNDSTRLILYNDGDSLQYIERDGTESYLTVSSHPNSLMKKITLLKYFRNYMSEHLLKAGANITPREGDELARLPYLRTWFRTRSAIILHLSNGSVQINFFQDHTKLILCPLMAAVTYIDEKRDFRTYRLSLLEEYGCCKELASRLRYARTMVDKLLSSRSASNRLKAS

| SMILES | remaining activity at 10 µM (PLK1; [1]) [%] | remaining activity at 10 µM (PKD1; [2]) [%] | remaining activity at 10 µM (MNK1; [3]) [%] | remaining activity at 10 µM (PKC zeta; [4]) [%] | also measured |
| --- | --- | --- | --- | --- | --- |
| CC(C)c1cnn2c(NCc3ccccc3F)cc(NCCCCCN)nc12 [ICEC-0232] |  |  |  |  | mean activity remaining (as a percentage of the original activity), PLK 1 (PLK1; 10 micromolar compound): 55%; mean activity remaining (as a percentage of the original activity), PKD1 (PKD1; 10 micromolar compound): 32%; mean activity remaining (as a percentage of the original activity), MNK1 (MNK1; 10 micromolar compound): 97%; mean activity remaining (as a percentage of the original activity), PKC zeta (PKC zeta; 10 micromolar compound): 65% |
| CC(C)c1cnn2c(NCc3ccccc3)cc(NCCCCCCCN)nc12 [BS-181] |  |  |  |  | remaining activity at 10 µM (PLK1; PLK1, 10 μM, read-out: Mean Remaining Enzyme Activity (%)): 100%; remaining activity at 10 µM (PKD1; PKD1, 10 μM, read-out: Mean Remaining Enzyme Activity (%)): 53%; remaining activity at 10 µM (MNK1; MNK1, 10 μM, read-out: Mean Remaining Enzyme Activity (%)): 105%; remaining activity at 10 µM (PKC zeta; PKC zeta, 10 μM, read-out: Mean Remaining Enzyme Activity (%)): 114% |
| CC[C@H](CO)Nc1cc(NCc2ccccc2)n2ncc(C(C)C)c2n1 [ICEC0067] | 64 | 87 | 86 | 76 |  |
| C=C[C@H](CO)Nc1cc(NCc2ccccc2)n2ncc(C(C)C)c2n1 [ICEC0065] | 56 | 88 | 90 | 84 |  |
| CC(C)c1cnn2c(NCc3ccccc3)cc(N[C@@H](CO)[C@H](O)CO)nc12 [ICEC0318, (3S)-3-(7-(Benzylamino)-3-isopropylpyrazolo[1,5-a]pyrimidin-5-ylamino)butane-1,2,4-triol] | 68 | 97 | 98 | 64 |  |
